In ChEMBL document CHEMBL3044797 (Crop Prot, 2008):
≈ marks a conversion by molar mass, not a printed value.

Columns and labels:
Fusarium graminearum [1] = test: Fungicidal activity against compound-resistant Fusarium graminearum isolate; type: functional, organism-based
Fusarium graminearum [2] = test: Fungicidal activity against carbendazim-resistant Fusarium graminearum isolate; type: functional, organism-based

## CCOC(=O)/C(C#N)=C(/N)c1ccccc1
Fusarium graminearum [1]
  EC50: 0.14 µg/mL (≈ 0.647 µM)
Fusarium graminearum [2]
  EC50: 0.115 µg/mL (≈ 0.532 µM)
